Test results as given in patent US20090099195A1 (ASTRAZENECA AB, priority 2007, published 2009).

target: T1, hP2X3 (human Purinergic P2X receptors subtype 3), clone A (Homo sapiens, UniProt P56373); assay: hP2X3 FLIPR calcium (Fluo-4) antagonist assay, clone A; settings: Human P2X3 FLIPR Clone A Mean IC50 (nM), RLE cells expressing hP2X3 clone A (AB016608); agonist 500 nM α,β-methylene-ATP
T1 sequence (P56373 1-397): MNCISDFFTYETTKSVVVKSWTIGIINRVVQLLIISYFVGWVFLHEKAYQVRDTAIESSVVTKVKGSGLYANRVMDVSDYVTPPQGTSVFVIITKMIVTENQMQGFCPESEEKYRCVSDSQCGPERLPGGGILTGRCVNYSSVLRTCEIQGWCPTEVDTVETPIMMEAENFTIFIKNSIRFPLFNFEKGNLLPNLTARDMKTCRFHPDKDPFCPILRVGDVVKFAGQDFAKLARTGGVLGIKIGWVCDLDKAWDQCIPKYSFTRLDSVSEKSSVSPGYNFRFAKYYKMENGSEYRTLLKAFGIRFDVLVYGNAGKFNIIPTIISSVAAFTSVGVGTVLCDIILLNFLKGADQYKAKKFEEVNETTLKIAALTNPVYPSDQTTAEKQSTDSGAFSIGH
Experimental: The assay used a calcium indicator dye (Fluo-4) that emits fluorescence, the intensity of which is related to the concentration of calcium that entered the cell when P2X3 was activated and the channel opened. Activation of hP2X3 or rat P2X3 and rat P2X2/3 (from the coexpression of rat P2X3 and rat P2×2) is elicited the by P2X3 agonist α,β methylene-ATP (Sigma M6517), and the resulting fluorescence is measured with a FLIPR II™ instrument (Molecular Devices). Compounds are tested for their ability to inhibit the agonist-induced fluorescent signal.
For the rat P2X2/3 HEK-TREX cells, induction of the rat P2X3 expression is used to generate the rat P2X2/3 channels in HEK-TREX cells and performed by addition of 1 μg/mL tetracycline (Invitrogen) 24 h prior to compounds testing to the HEK-TREX expressing the rat P2X2 constitutively. On the day of the experiment, the cells and test compounds are prepared as follows. […] After preparing the compounds, the medium is removed from the cell plates by inversion. A loading solution of 30 μL assay buffer containing 4 μM of the calcium indicator dye FLUO-4 AM (Molecular Probes F14202) is added to each well using a Multidrop (Labsystems). […] The incubation is terminated by washing the cells four times in assay buffer using a Skatron Embla (Molecular Devices), and 25 μL of assay buffer was left in each well. Cell plates are then transferred to the FLIPR. Experiments are initiated by measuring a baseline fluorescence reading for 10 seconds, followed by the addition of 12.5 μL of cpds and data sampling for a total 280 seconds. The experiments are terminated by addition of 12.5 μL of a reference agonist (500 nM α,β-methylene-ATP) or buffer, producing a final assay volume of 50 μL followed by data sampling for an additional 280 seconds.
In P2X3 antagonist experiments (human and rat assays) data are analysed as normalised maximal peak fluorescence monitored following agonist addition and calculated as percent of relative fluorescent counts from control agonist. The dose-response antagonist inhibition curves are analyzed in a 4-parameter sigmoidal fit using a non-linear curve-fitting program (XLfit version 5.0.6, ID Business Solutions Limited, Guildford, UK).

Structure (SMILES) | IC50 [nM]
CCCOc1ccc([C@@H](C)Nc2nc(N3CCN(C(C)=O)CC3)nc3c2CN(C(C)C)C3=O)cc1F [Example 193, (R)-2-(4-acetylpiperazin-1-yl)-4-(1-(3-fluoro-4-propoxyphenyl)ethylamino)-6-isopropyl-5H-pyrrolo[3,4-d]pyrimidin-7(6H)-one] | 235
CCOc1ncc([C@@H](C)Nc2nc(N3CCN(C(C)=O)CC3)nc3c2CN(C(C)C)C3=O)cc1Cl [Example 194, (R)-2-(4-acetylpiperazin-1-yl)-4-(1-(5-chloro-6-ethoxypyridin-3-yl)ethylamino)-6-isopropyl-5H-pyrrolo[3,4-d]pyrimidin-7(6H)-one] | 283
CC(=O)N1CCN(c2nc3c(c(N4CCCC4c4ccc(C)c(C)c4)n2)CN(C(C)C)C3=O)CC1 (stereo not drawn) [Example 298, 2-(4-acetylpiperazin-1-yl)-4-[2-(3,4-dimethylphenyl)pyrrolidin-1-yl]-6-(1-methylethyl)-5,6-dihydro-7H-pyrrolo[3,4-d]pyrimidin-7-one] | 454
CCOc1ccc([C@H]2CCCN2c2nc(N3CCN(C(C)=O)CC3)nc3c2CN(C(C)C)C3=O)cc1F [Example 300, 2-(4-acetylpiperazin-1-yl)-4-[(2R)-2-(4-ethoxy-3-fluorophenyl)pyrrolidin-1-yl]-6-(1-methylethyl)-5,6-dihydro-7H-pyrrolo[3,4-d]pyrimidin-7-one] | 192
CC(=O)N1CCN(c2nc(N[C@H](C)c3ccc(OCC4CC4)c(F)c3)c3c(n2)C(=O)N(C(C)C)C3)CC1 [Example 322, (R)-2-(4-acetylpiperazin-1-yl)-4-(1-(4-(cyclopropylmethoxy)-3-fluorophenyl)ethylamino)-6-isopropyl-5H-pyrrolo[3,4-d]pyrimidin-7(6H)-one] | 1900
CC(=O)N1CCN(c2nc(NC(C)c3ccc4c(c3)CC(C)O4)c3c(n2)C(=O)N(C(C)C)C3)CC1 (stereo not drawn) [Example 324, 2-(4-acetylpiperazin-1-yl)-6-isopropyl-4-(1-(2-methyl-2,3-dihydrobenzofuran-5-yl)ethylamino)-5H-pyrrolo[3,4-d]pyrimidin-7(6H)-one] | 179

Further lines, results first:

IC50 [nM] | Structure (SMILES)
102 | CC(=O)N1CCN(c2nc(N[C@H](C)c3ccc(C4CC4)cc3)c3c(n2)C(=O)N(C(C)C)C3)CC1 [Example 192, (R)-2-(4-acetylpiperazin-1-yl)-4-(1-(4-cyclopropylphenyl)ethylamino)-6-isopropyl-5H-pyrrolo[3,4-d]pyrimidin-7(6H)-one]
564 | CC(=O)N1CCN(c2nc(NC(C)c3nc4ccccc4s3)c3c(n2)C(=O)N(C(C)C)C3)CC1 (stereo not drawn) [Example 236, 2-(4-acetylpiperazin-1-yl)-4-(1-(benzo[d]thiazol-2-yl)ethylamino)-6-isopropyl-5H-pyrrolo[3,4-d]pyrimidin-7(6H)-one]
1140 | COc1ccc(C2CCCN2c2nc(N3CCN(C(C)=O)CC3)nc3c2CN(C(C)C)C3=O)cc1 (stereo not drawn) [Example 299, 2-(4-acetylpiperazin-1-yl)-4-[2-(4-methoxyphenyl)pyrrolidin-1-yl]-6-(1-methylethyl)-5,6-dihydro-7H-pyrrolo[3,4-d]pyrimidin-7-one]
410 | CC(=O)N1CCN(c2nc(NCc3ccc4c(c3)CC(C)O4)c3c(n2)C(=O)N(C(C)C)C3)CC1 (stereo not drawn) [Example 323, 2-(4-acetylpiperazin-1-yl)-6-isopropyl-4-((2-methyl-2,3-dihydrobenzofuran-5-yl)methylamino)-5H-pyrrolo[3,4-d]pyrimidin-7(6H)-one]

target: T2, hP2X3 (human Purinergic P2X receptors subtype 3), clone B (Homo sapiens, UniProt P56373); assay: hP2X3 FLIPR calcium (Fluo-4) antagonist assay, clone B; settings: Human P2X3 FLIPR Clone B IC50 (nM), RLE cells expressing hP2X3 clone B (NM_002559); agonist 500 nM α,β-methylene-ATP
T2 sequence (P56373 1-397): T1 sequence (P56373 1-397)

Structure (SMILES) | IC50 [nM]
CC(=O)N1CCN(c2nc3c(c(N4CCC[C@@H]4C(=O)NC4CCCCC4)n2)CN(C(C)C)C3=O)CC1 [Example 302, (2R)-1-[4-(4-acetylpiperazin-1-yl)-7-oxo-8-propan-2-yl-3,5,8-triazabicyclo[4.3.0]nona-1,3,5-trien-2-yl]-N-cyclohexyl-pyrrolidine-2-carboxamide] | 3100
CC(=O)N1CCN(c2nc3c(c(N4CCC[C@@H]4C(=O)N4CCC(C)CC4)n2)CN(C(C)C)C3=O)CC1 [Example 303, 4-(4-acetylpiperazin-1-yl)-2-[(2R)-2-(4-methylpiperidine-1-carbonyl)pyrrolidin-1-yl]-8-propan-2-yl-3,5,8-triazabicyclo[4.3.0]nona-2,4,10-trien-7-one] | 2300
CC(=O)N1CCN(c2nc(NC(C)(C)Cc3ccc(F)cc3)c3c(n2)C(=O)N(C2CCOCC2)C3)CC1 [Example 305, 3-(4-acetylpiperazin-1-yl)-5-[[1-(4-fluorophenyl)-2-methyl-propan-2-yl]amino]-8-(oxan-4-yl)-2,4,8-triazabicyclo[4.3.0]nona-1,3,5-trien-9-one] | 2400
CC(=O)N1CCN(c2nc(NC(C)(C)Cc3ccc(F)cc3)c3c(n2)C(=O)N(C(C)C(C)C)C3)CC1 (stereo not drawn) [Example 313, 2-(4-acetylpiperazin-1-yl)-4-(1-(4-fluorophenyl)-2-methylpropan-2-ylamino)-6-(3-methylbutan-2-yl)-5H-pyrrolo[3,4-d]pyrimidin-7(6H)-one] | 280
COCC(C)N1Cc2c(NC(C)(C)Cc3ccc(F)cc3)nc(N3CCN(C(C)=O)CC3)nc2C1=O (stereo not drawn) [Example 314, 2-(4-acetylpiperazin-1-yl)-4-(1-(4-fluorophenyl)-2-methylpropan-2-ylamino)-6-(1-methoxypropan-2-yl)-5H-pyrrolo[3,4-d]pyrimidin-7(6H)-one] | 670
CC(=O)N1CCN(c2nc(NC(C)(C)Cc3ccc(F)cc3)c3c(n2)C(=O)N(Cc2ccccc2Cl)C3)CC1 [Example 315, 2-(4-acetylpiperazin-1-yl)-6-(2-chlorobenzyl)-4-(1-(4-fluorophenyl)-2-methylpropan-2-ylamino)-5H-pyrrolo[3,4-d]pyrimidin-7(6H)-one] | 3000
CC(=O)N(Cc1cc2ccccc2cn1)c1nc(N2CCN(C(C)=O)[C@H](C)C2)nc2c1CN(C(C)C)C2=O [Example 326, (R)—N-(2-(4-acetyl-3-methylpiperazin-1-yl)-6-isopropyl-7-oxo-6,7-dihydro-5H-pyrrolo[3,4-d]pyrimidin-4-yl)-N-(isoquinolin-3-ylmethyl)acetamide] | 590
CC(C)N1Cc2c(NCc3cnc4ccccc4c3)nc(N3CCN(S(C)(=O)=O)CC3)nc2C1=O [Example 329, 6-(1-methylethyl)-2-[4-(methylsulfonyl)piperazin-1-yl]-4-[(quinolin-3-ylmethyl)amino]-5,6-dihydro-7H-pyrrolo[3,4-d]pyrimidin-7-one] | 8900
CC(=O)N1CCN(c2nc3c(c(N(C)Cc4cnc5ccccc5c4)n2)CN(C(C)C)C3=O)CC1 [Example 346, 2-(4-acetylpiperazin-1-yl)-6-isopropyl-4-(methyl(quinolin-3-ylmethyl)amino)-5H-pyrrolo[3,4-d]pyrimidin-7(6H)-one] | 47
CC(=O)N1CCN(c2nc3c(c(N(C)Cc4cc5ccccc5nc4C)n2)CN(C(C)C)C3=O)CC1 [Example 347, 2-(4-acetylpiperazin-1-yl)-6-isopropyl-4-(methyl((2-methylquinolin-3-yl)methyl)amino)-5H-pyrrolo[3,4-d]pyrimidin-7(6H)-one] | 2900

The remaining lines, values ahead:

IC50 [nM] | Structure (SMILES)
2500 | CC(=O)N1CCN(c2nc3c(c(N4CCC[C@@H]4C(=O)OCc4ccc(Cl)cc4)n2)CN(C(C)C)C3=O)CC1 [Example 301, (4-chlorophenyl)methyl (2R)-1-[4-(4-acetylpiperazin-1-yl)-7-oxo-8-propan-2-yl-3,5,8-triazabicyclo[4.3.0]nona-1,3,5-trien-2-yl]pyrrolidine-2-carboxylate]
160 | CCC(C)N1Cc2c(NC(C)(C)Cc3ccc(F)cc3)nc(N3CCN(C(C)=O)CC3)nc2C1=O (stereo not drawn) [Example 312, 2-(4-acetylpiperazin-1-yl)-6-sec-butyl-4-(1-(4-fluorophenyl)-2-methylpropan-2-ylamino)-5H-pyrrolo[3,4-d]pyrimidin-7(6H)-one]
380 | CC(=O)N(Cc1cc2ccccc2cn1)c1nc(N2CCN(C(C)=O)[C@@H](C)C2)nc2c1CN(C(C)C)C2=O [Example 325, (S)—N-(2-(4-acetyl-3-methylpiperazin-1-yl)-6-isopropyl-7-oxo-6,7-dihydro-5H-pyrrolo[3,4-d]pyrimidin-4-yl)-N-(isoquinolin-3-ylmethyl)acetamide]
91 | CC(=O)N1CCN(c2nc(NCc3cnc4ccccc4c3)c3c(n2)C(=O)N(C(C)C)C3)C[C@@H]1C [Example 327, (S)-2-(4-acetyl-3-methylpiperazin-1-yl)-6-isopropyl-4-(quinolin-3-ylmethylamino)-5H-pyrrolo[3,4-d]pyrimidin-7(6H)-one]
62 | CC(=O)N1CCN(c2nc(NCc3cnc4ccccc4c3)c3c(n2)C(=O)N(C(C)C)C3)C[C@H]1C [Example 328, (R)-2-(4-acetyl-3-methylpiperazin-1-yl)-6-isopropyl-4-(quinolin-3-ylmethylamino)-5H-pyrrolo[3,4-d]pyrimidin-7(6H)-one]
830 | CC(=O)N1CCN(c2nc(NC(C)(C)Cc3cccc(C)c3)c3c(n2)C(=O)N(C(C)C)C3)CC1 [Example 333, 2-(4-acetylpiperazin-1-yl)-6-isopropyl-4-(2-methyl-1-m-tolylpropan-2-ylamino)-5H-pyrrolo[3,4-d]pyrimidin-7(6H)-one]
200 | CC(=O)N1CCN(c2nc(NCc3cnc4ccccc4c3)c3c(n2)C(=O)N(C(C)C)C3)C(C)C1 (stereo not drawn) [Example 352, 2-(4-Acetyl-2-methylpiperazin-1-yl)-6-isopropyl-4-(quinolin-3-ylmethylamino)-5H-pyrrolo[3,4-d]pyrimidin-7(6M)-one]
